PubChem BioAssay (NCI)
“And” between values parts separate entries of the source, which are not always exact repeats. Equal entries are not always repeated.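 Following 48 hours of exposure in 96-well plates, responses at five concentrations were used to interpolate endpoints linearly. GI50 = concentration required for 50% inhibition of growth. TGI denotes the concentration required for complete inhibition of growth.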

What was measured:
Experiment in all cases: inhibition of tumour cell growth, NCI panel, 48 h
CAKI-1 renal = test system: CAKI-1 renal
OVCAR-8 ovarian = test system: OVCAR-8 ovarian
MOLT-4 leukemia = test system: MOLT-4 leukemia
SK-MEL-2 melanoma = test system: SK-MEL-2 melanoma
EKVX NSCLC = test system: EKVX NSCLC
TK-10 renal = test system: TK-10 renal
HCT-116 colon = test system: HCT-116 colon
SK-OV-3 ovarian = test system: SK-OV-3 ovarian
COLO 205 colon = test system: COLO 205 colon
OVCAR-5 ovarian = test system: OVCAR-5 ovarian

## C[C@@]1([C@H](OC(=O)c2cccc3ccccc23)C(N)=O)CO1
CAKI-1 renal
  GI50: 5.56 µM
  TGI: > 100 µM
OVCAR-8 ovarian
  GI50: 0.594 µM
  TGI: 22.7 µM
MOLT-4 leukemia
  GI50: 0.187 µM
  TGI: > 100 µM
SK-MEL-2 melanoma
  GI50: 1.12 µM
  TGI: 7.09 µM
EKVX NSCLC
  GI50: 4.53 µM
  TGI: 15.7 µM
TK-10 renal
  GI50: 3.6 µM
  TGI: 14.8 µM
HCT-116 colon
  GI50: 0.368 µM
  TGI: 8.43 µM
SK-OV-3 ovarian
  GI50: 6.35 µM
  TGI: 19.7 µM
COLO 205 colon
  GI50: 2.99 µM
  TGI: 14.4 µM
OVCAR-5 ovarian
  GI50: 3.95 µM
  TGI: 24.9 µM

## CC(C)COC(=O)N1N=NC2C3CC(=O)C(O3)C21 (configuration not stated)
CAKI-1 renal
  TGI: > 100 µM
OVCAR-8 ovarian
  TGI: > 100 µM
MOLT-4 leukemia
  TGI: > 100 µM
SK-MEL-2 melanoma
  TGI: > 100 µM
EKVX NSCLC
  TGI: > 100 µM
TK-10 renal
  TGI: > 100 µM
HCT-116 colon
  TGI: > 100 µM
SK-OV-3 ovarian
  TGI: > 100 µM
COLO 205 colon
  TGI: > 100 µM
OVCAR-5 ovarian
  TGI: > 100 µM

## CC(=O)O[C@H]1CC[C@@]2(C)C(=CC[C@@H]3C2CC[C@]2(C)C(=O)NC(=O)CC32)C1 (some centres not stated)
CAKI-1 renal
  TGI: > 100 µM
OVCAR-8 ovarian
  TGI: > 100 µM
MOLT-4 leukemia
  TGI: > 100 µM
SK-MEL-2 melanoma
  TGI: > 100 µM
EKVX NSCLC
  TGI: > 100 µM
TK-10 renal
  TGI: > 100 µM
HCT-116 colon
  TGI: > 100 µM
SK-OV-3 ovarian
  TGI: > 100 µM
COLO 205 colon
  TGI: > 100 µM
OVCAR-5 ovarian
  TGI: > 100 µM

## CN(C)c1ccc(/C=N/NC(=O)CSc2nc3sc4c(c3c(=O)n2-c2ccccc2)CCCCC4)cc1
CAKI-1 renal
  GI50: 5.07 µM
  TGI: > 100 µM
OVCAR-8 ovarian
  GI50: 4.83 µM
  TGI: > 100 µM
MOLT-4 leukemia
  GI50: > 100 µM
  TGI: > 100 µM
SK-MEL-2 melanoma
  GI50: 15.5 µM
  TGI: 59.3 µM
EKVX NSCLC
  GI50: 7.08 µM
  TGI: > 100 µM
TK-10 renal
  GI50: 4.16 µM
  TGI: > 100 µM
HCT-116 colon
  GI50: 3.96 µM
  TGI: > 100 µM
SK-OV-3 ovarian
  GI50: 11.3 µM
  TGI: 51 µM
COLO 205 colon
  GI50: 4.14 µM
  TGI: > 100 µM
OVCAR-5 ovarian
  GI50: 6.55 µM
  TGI: > 100 µM

## CS(=O)(=O)OCCCCOS(C)(=O)=O
CAKI-1 renal
  GI50: 305 µM
  TGI: 212 µM and 980 µM
OVCAR-8 ovarian
  GI50: > 873 µM
  TGI: 250 µM and > 1000 µM
MOLT-4 leukemia
  TGI: 233 µM and 992 µM
SK-MEL-2 melanoma
  GI50: > 1000 µM
  TGI: 250 µM and > 1000 µM
EKVX NSCLC
  GI50: > 1000 µM
  TGI: > 1000 µM
TK-10 renal
  GI50: > 464 µM
  TGI: > 464 µM
HCT-116 colon
  GI50: 689 µM
  TGI: 250 µM and > 1000 µM
SK-OV-3 ovarian
  GI50: 804 µM
  TGI: > 1000 µM
COLO 205 colon
  GI50: > 1000 µM
  TGI: 250 µM and > 1000 µM
OVCAR-5 ovarian
  GI50: > 698 µM
  TGI: > 1000 µM

## CC1OC(OC23C(=O)CC(C)(O)CC2(O)C=CC2=C3C(=O)c3ccc(C4CC(OC5CCC(OC6CC(O)C(O)C(C)O6)C(C)O5)C(O)C(C)O4)c(O)c3C2=O)CCC1O (configuration not stated)
CAKI-1 renal
  TGI: 33.5 µM and 34.5 µM
OVCAR-8 ovarian
  GI50: 16.5 µM and 5.32 µM
  TGI: 30.1 µM and 17.6 µM
MOLT-4 leukemia
  TGI: > 100 µM
SK-MEL-2 melanoma
  TGI: 31.2 µM and 30.5 µM
EKVX NSCLC
  TGI: 32.7 µM and 31.7 µM
TK-10 renal
  TGI: 36.5 µM and 31.6 µM
HCT-116 colon
  GI50: 15.1 µM and 5.78 µM
  TGI: 28.5 µM and 18.6 µM
SK-OV-3 ovarian
  TGI: 86.2 µM and 46 µM
COLO 205 colon
  TGI: 11.8 µM and 8.15 µM
OVCAR-5 ovarian
  TGI: 33.1 µM and 34.9 µM

## CN(C)C(=O)C(NCCO)c1ccccc1 (configuration not stated)
CAKI-1 renal
  TGI: > 100 µM
OVCAR-8 ovarian
  TGI: > 100 µM
MOLT-4 leukemia
  TGI: > 100 µM
SK-MEL-2 melanoma
  TGI: > 100 µM
EKVX NSCLC
  TGI: > 100 µM
TK-10 renal
  TGI: > 100 µM
HCT-116 colon
  TGI: > 100 µM
SK-OV-3 ovarian
  TGI: > 100 µM
COLO 205 colon
  TGI: > 100 µM
OVCAR-5 ovarian
  TGI: > 100 µM

## CC(C)C[C@H](NC(=O)[C@H](Cc1ccccc1)NC(=O)c1cnccn1)B(O)O
CAKI-1 renal
  GI50: 0.00148 µM
OVCAR-8 ovarian
  GI50: 0.0175 µM and 0.00427 µM
MOLT-4 leukemia
  GI50: 0.00143 µM
SK-MEL-2 melanoma
  GI50: 0.00172 µM
  TGI: < 0.0223 µM and 0.0101 µM
EKVX NSCLC
  GI50: < 0.0175 µM and 0.00419 µM
  TGI: 2.06 µM and 0.417 µM and 2.33 µM
TK-10 renal
  GI50: 0.00164 µM
  TGI: < 0.0693 µM and 0.0129 µM
HCT-116 colon
  GI50: 0.00108 µM
  TGI: < 0.0161 µM and 0.00328 µM
SK-OV-3 ovarian
  GI50: 0.0187 µM and 0.0085 µM
COLO 205 colon
  GI50: 0.00284 µM
  TGI: 1.31 µM and 0.217 µM
OVCAR-5 ovarian
  GI50: 0.0026 µM
  TGI: 0.0667 µM and 0.0312 µM and < 0.0499 µM

## COc1ccc2c(c1)[n+]([O-])c(/C(C)=N/NC(N)=S)c(C)[n+]2[O-]
CAKI-1 renal
  TGI: > 100 µM
OVCAR-8 ovarian
  TGI: > 100 µM
MOLT-4 leukemia
  TGI: > 83.8 µM
SK-MEL-2 melanoma
  TGI: > 100 µM
EKVX NSCLC
  TGI: > 100 µM
TK-10 renal
  TGI: > 100 µM
HCT-116 colon
  TGI: > 93.2 µM
SK-OV-3 ovarian
  TGI: > 100 µM
COLO 205 colon
  TGI: > 100 µM
OVCAR-5 ovarian
  TGI: > 100 µM

## C=CC1CC12C(=O)C1OC2(C)C2C(=O)c3c(O)cccc3C(=O)C12 (configuration not stated)
CAKI-1 renal
  GI50: 13.1 µM
  TGI: 31.8 µM
OVCAR-8 ovarian
  GI50: 37.8 µM
  TGI: > 100 µM
MOLT-4 leukemia
  GI50: 23.6 µM
  TGI: > 100 µM
SK-MEL-2 melanoma
  GI50: 50 µM
  TGI: > 100 µM
EKVX NSCLC
  GI50: 56.9 µM
  TGI: > 100 µM
TK-10 renal
  GI50: 39.7 µM
  TGI: > 100 µM
HCT-116 colon
  GI50: 38.1 µM
  TGI: > 100 µM
SK-OV-3 ovarian
  GI50: 94.5 µM
  TGI: > 100 µM
COLO 205 colon
  GI50: 31.7 µM
  TGI: > 100 µM
OVCAR-5 ovarian
  GI50: > 100 µM
  TGI: > 100 µM

## CN1CCN2c3ccccc3CC(C#N)(C#N)C2C1 (configuration not stated)
CAKI-1 renal
  TGI: > 100 µM
OVCAR-8 ovarian
  TGI: > 100 µM
MOLT-4 leukemia
  TGI: > 100 µM
SK-MEL-2 melanoma
  TGI: > 100 µM
EKVX NSCLC
  TGI: > 100 µM
TK-10 renal
  TGI: > 100 µM
HCT-116 colon
  TGI: > 100 µM
SK-OV-3 ovarian
  TGI: > 100 µM
COLO 205 colon
  TGI: > 100 µM
OVCAR-5 ovarian
  TGI: > 100 µM

## N=C(N)c1ccc(CS(=O)(=O)F)cc1
CAKI-1 renal
  GI50: > 100 µM
  TGI: > 100 µM
OVCAR-8 ovarian
  GI50: > 100 µM
  TGI: > 100 µM
MOLT-4 leukemia
  GI50: > 100 µM
  TGI: > 100 µM
SK-MEL-2 melanoma
  GI50: > 100 µM
  TGI: > 100 µM
EKVX NSCLC
  GI50: > 100 µM
  TGI: > 100 µM
TK-10 renal
  GI50: > 100 µM
  TGI: > 100 µM
HCT-116 colon
  GI50: > 100 µM
  TGI: > 100 µM
SK-OV-3 ovarian
  GI50: > 100 µM
  TGI: > 100 µM
COLO 205 colon
  GI50: > 100 µM
  TGI: > 100 µM
OVCAR-5 ovarian
  GI50: > 100 µM
  TGI: > 100 µM

## CCOC(=O)C1Nc2ccc([N+](=O)[O-])cc2[C@H]2OCC[C@@H]12 (some centres not stated)
CAKI-1 renal
  TGI: > 100 µM
OVCAR-8 ovarian
  TGI: > 100 µM
MOLT-4 leukemia
  TGI: > 100 µM
SK-MEL-2 melanoma
  TGI: > 100 µM
EKVX NSCLC
  TGI: > 100 µM
TK-10 renal
  TGI: > 100 µM
HCT-116 colon
  TGI: > 100 µM
SK-OV-3 ovarian
  TGI: > 100 µM
COLO 205 colon
  TGI: > 100 µM
OVCAR-5 ovarian
  TGI: > 100 µM

## C[C@]12CC/C(=N\O)C[C@@H]1CC[C@@H]1[C@@H]2CC[C@]2(C)/C(=N/O)CC[C@@H]12
CAKI-1 renal
  GI50: 25.4 µM
  TGI: 86.2 µM
OVCAR-8 ovarian
  GI50: 45.2 µM
  TGI: > 100 µM
MOLT-4 leukemia
  GI50: 64.4 µM
  TGI: > 100 µM
SK-MEL-2 melanoma
  GI50: 32.9 µM
  TGI: 97 µM
EKVX NSCLC
  GI50: 44.6 µM
  TGI: > 100 µM
TK-10 renal
  GI50: 32.1 µM
  TGI: > 100 µM
HCT-116 colon
  GI50: 23.3 µM
  TGI: 58.5 µM
SK-OV-3 ovarian
  GI50: 51.4 µM
  TGI: > 100 µM
COLO 205 colon
  GI50: 35.8 µM
  TGI: > 100 µM
OVCAR-5 ovarian
  GI50: 46.1 µM
  TGI: > 100 µM

## O=C1C[C@@H]2[C@@H](C=CC23CC3)N1O
CAKI-1 renal
  TGI: > 100 µM
OVCAR-8 ovarian
  TGI: > 100 µM
MOLT-4 leukemia
  TGI: > 100 µM
SK-MEL-2 melanoma
  TGI: > 100 µM
EKVX NSCLC
  TGI: > 100 µM
TK-10 renal
  TGI: > 100 µM
HCT-116 colon
  TGI: > 100 µM
SK-OV-3 ovarian
  TGI: > 100 µM
COLO 205 colon
  TGI: > 100 µM
OVCAR-5 ovarian
  TGI: > 100 µM

## OCCNC(=S)Nc1ccc(-c2nc(N3C[C@H]4CC[C@@H](C3)O4)c3cccn3n2)cc1
CAKI-1 renal
  GI50: 0.132 µM
  TGI: > 37.8 µM
OVCAR-8 ovarian
  GI50: 0.173 µM
  TGI: 3.16 µM
MOLT-4 leukemia
  GI50: 0.09 µM
  TGI: 17.1 µM
SK-MEL-2 melanoma
  GI50: 0.0637 µM
  TGI: 0.579 µM
EKVX NSCLC
  GI50: 0.0629 µM
  TGI: 6.59 µM
TK-10 renal
  GI50: 0.0269 µM
  TGI: 0.399 µM
HCT-116 colon
  GI50: 0.357 µM
  TGI: 21.7 µM
SK-OV-3 ovarian
  GI50: 0.0162 µM
  TGI: 0.104 µM
COLO 205 colon
  GI50: 0.0365 µM
  TGI: 1.69 µM
OVCAR-5 ovarian
  GI50: 0.0379 µM
  TGI: 15.3 µM
